In ChEMBL document CHEMBL1201862, “PubChem BioAssay data set” (2004):
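The compound was tested at five concentrations on cells cultured in 96-well plates, with a 48-hour exposure period. GI50 marks 50% less growth.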 Activity calls are given as the source filed them. No stated cut-off is given here; in the data, active = GI50 up to about 1.1 µM and inactive = higher.

Columns and labels:
Assay in all cases: NCI anticancer screen, dose series, 48 h
EKVX = system: EKVX
CCRF-CEM = system: CCRF-CEM
DMS-273 = system: DMS-273
COLO 205 = system: COLO 205
SK-MEL-28 = system: SK-MEL-28
A498 = system: A498
SW-620 = system: SW-620
M19-MEL = system: M19-MEL
KM-20L2 = system: KM-20L2
K562 = system: K562
HCC 2998 = system: HCC 2998
786-0 = system: 786-0
RXF 393 = system: RXF 393
UACC-257 = system: UACC-257
LOX IMVI = system: LOX IMVI
U-251 = system: U-251
ACHN = system: ACHN
RXF 631 = system: RXF 631
HOP-92 = system: HOP-92
SF-539 = system: SF-539
OVCAR-8 = system: OVCAR-8
SNB-75 = system: SNB-75
SF-295 = system: SF-295
HOP-18 = system: HOP-18
OVCAR-4 = system: OVCAR-4
A549 = system: A549
TK-10 = system: TK-10
UACC-62 = system: UACC-62
SK-OV-3 = system: SK-OV-3
DMS-114 = system: DMS-114
M14 = system: M14
DLD-1 = system: DLD-1
SK-MEL-5 = system: SK-MEL-5
HT-29 = system: HT-29
HCT-15 = system: HCT-15
SNB-78 = system: SNB-78
HL-60 = system: HL-60
CAKI-1 = system: CAKI-1
OVCAR-3 = system: OVCAR-3
SN12C = system: SN12C
NCI-H23 = system: NCI-H23
SNB-19 = system: SNB-19
IGROV-1 = system: IGROV-1
RPMI-8226 = system: RPMI-8226
LXFL 529 = system: LXFL 529
MOLT-4 = system: MOLT-4
HCT-116 = system: HCT-116
XF498 = system: XF498
NCI-H460 = system: NCI-H460
HOP-62 = system: HOP-62
SF-268 = system: SF-268
UO-31 = system: UO-31
NCI-H226 = system: NCI-H226
NCI-H522 = system: NCI-H522
KM12 = system: KM12
SR = system: SR
SK-MEL-2 = system: SK-MEL-2
OVCAR-5 = system: OVCAR-5
Malme-3M = system: Malme-3M

`CC(C)(C)c1cc(O)c2c(c1O)C(=O)CCC2` was tested, and the GI50 (EKVX) was 54.8 µM (inactive), the GI50 (CCRF-CEM) was 35.2 µM (inactive) and the GI50 (DMS-273) was 34.8 µM (inactive). For the same molecule, the GI50 (COLO 205) was 73.8 µM (inactive), the GI50 (SK-MEL-28) was 42.6 µM (inactive) and the GI50 (A498) was 40.6 µM (inactive). The GI50 (SW-620) was 57.8 µM (inactive), the GI50 (M19-MEL) was 30.5 µM (inactive) and the GI50 (KM-20L2) was 40.1 µM (inactive). For the same molecule, the GI50 (K562) was 30.3 µM (inactive), the GI50 (HCC 2998) was 36.7 µM (inactive) and the GI50 (786-0) was 32.1 µM (inactive). The GI50 (RXF 393) was 19.1 µM (inactive), the GI50 (UACC-257) was 29.4 µM (inactive) and the GI50 (LOX IMVI) was 28.4 µM (inactive). The GI50 (U-251) was 50.7 µM (inactive), the GI50 (ACHN) was 50.2 µM (inactive) and the GI50 (RXF 631) was 57.7 µM (inactive). For the same molecule, the GI50 (HOP-92) was 2.69 µM (inactive), the GI50 (SF-539) was 42.3 µM (inactive) and the GI50 (OVCAR-8) was 36.7 µM (inactive). For the same molecule, the GI50 (SNB-75) was 42.4 µM (inactive), the GI50 (SF-295) was 30.2 µM (inactive) and the GI50 (HOP-18) was 60.5 µM (inactive). For the same molecule, the GI50 (OVCAR-4) was 30.2 µM (inactive), the GI50 (A549) was 35.9 µM (inactive) and the GI50 (TK-10) was 40.9 µM (inactive). For the same molecule, the GI50 (UACC-62) was 26 µM (inactive), the GI50 (SK-OV-3) was 40.5 µM (inactive) and the GI50 (DMS-114) was 20.3 µM (inactive). For the same molecule, the GI50 (M14) was 34.9 µM (inactive), the GI50 (DLD-1) was 37.9 µM (inactive) and the GI50 (SK-MEL-5) was 18.4 µM (inactive). The GI50 (HT-29) was 32.9 µM (inactive), the GI50 (HCT-15) was 40.8 µM and the GI50 (SNB-78) was 32.7 µM (inactive). For the same molecule, the GI50 (HL-60) was 20.2 µM (inactive), the GI50 (CAKI-1) was 22.5 µM (inactive) and the GI50 (OVCAR-3) was 25.6 µM (inactive). The GI50 (SN12C) was 41.8 µM (inactive), the GI50 (NCI-H23) was 28.9 µM (inactive) and the GI50 (SNB-19) was 32.7 µM (inactive). The GI50 (IGROV-1) was 40.7 µM (inactive), the GI50 (RPMI-8226) was 21.1 µM (inactive) and the GI50 (LXFL 529) was 34.8 µM (inactive). The GI50 (MOLT-4) was 23.9 µM (inactive), the GI50 (HCT-116) was 31.7 µM (inactive) and the GI50 (XF498) was 31.1 µM (inactive). For the same molecule, the GI50 (NCI-H460) was 48 µM (inactive) and the GI50 (HOP-62) was 22.8 µM (inactive).
`CCCC(O)[C@@H](O)c1ccc2c(c1O)C(=O)c1c(OC)cccc1C2=O` (some centres not stated) was tested, and the GI50 (EKVX) was 55.1 µM (inactive), the GI50 (CCRF-CEM) was 31.3 µM (inactive) and the GI50 (SF-268) was 57.7 µM (inactive). The GI50 (DMS-273) was 35.5 µM (inactive), the GI50 (COLO 205) was 20.9 µM (inactive) and the GI50 (SK-MEL-28) was 66.4 µM (inactive). The GI50 (A498) was 34.5 µM (inactive), the GI50 (SW-620) was 63.2 µM (inactive) and the GI50 (UO-31) was 28.2 µM (inactive). For the same molecule, the GI50 (M19-MEL) was 24.2 µM (inactive), the GI50 (KM-20L2) was 50.9 µM (inactive) and the GI50 (K562) was 34.3 µM (inactive). For the same molecule, the GI50 (HCC 2998) was 19.4 µM (inactive), the GI50 (786-0) was 37.5 µM (inactive) and the GI50 (UACC-257) was 29.9 µM (inactive). For the same molecule, the GI50 (LOX IMVI) was 27.4 µM (inactive), the GI50 (U-251) was 27.2 µM (inactive) and the GI50 (ACHN) was 34.4 µM (inactive). The GI50 (RXF 631) was 28.2 µM (inactive), the GI50 (HOP-92) was 58.2 µM (inactive) and the GI50 (NCI-H226) was 27.3 µM (inactive). For the same molecule, the GI50 (SF-539) was 24.2 µM (inactive), the GI50 (OVCAR-8) was 30.1 µM (inactive) and the GI50 (NCI-H522) was 16.1 µM (inactive). For the same molecule, the GI50 (SNB-75) was 47 µM (inactive), the GI50 (SF-295) was 33 µM (inactive) and the GI50 (HOP-18) was 50.8 µM (inactive). The GI50 (OVCAR-4) was 25 µM (inactive), the GI50 (A549) was 44 µM (inactive) and the GI50 (TK-10) was 51.4 µM (inactive). For the same molecule, the GI50 (UACC-62) was 25.9 µM (inactive), the GI50 (KM12) was 35.6 µM (inactive) and the GI50 (SK-OV-3) was 24.1 µM (inactive). The GI50 (DMS-114) was 26.2 µM (inactive), the GI50 (M14) was 31.6 µM (inactive) and the GI50 (DLD-1) was 36.9 µM (inactive). The GI50 (SK-MEL-5) was 16.8 µM (inactive), the GI50 (HT-29) was 38.9 µM (inactive) and the GI50 (HCT-15) was 26.2 µM. The GI50 (SR) was 26.4 µM (inactive), the GI50 (SNB-78) was 36.6 µM (inactive) and the GI50 (HL-60) was 18.4 µM (inactive). The GI50 (CAKI-1) was 27.8 µM (inactive), the GI50 (OVCAR-3) was 34.8 µM (inactive) and the GI50 (SN12C) was 40.4 µM (inactive). For the same molecule, the GI50 (SK-MEL-2) was 46.8 µM (inactive), the GI50 (NCI-H23) was 36.6 µM (inactive) and the GI50 (SNB-19) was 80.4 µM (inactive). For the same molecule, the GI50 (IGROV-1) was 30.7 µM (inactive), the GI50 (RPMI-8226) was 5.73 µM (inactive) and the GI50 (MOLT-4) was 21.1 µM (inactive). For the same molecule, the GI50 (HCT-116) was 38.5 µM (inactive), the GI50 (XF498) was 20.2 µM (inactive) and the GI50 (OVCAR-5) was 54.7 µM (inactive). For the same molecule, the GI50 (Malme-3M) was 40.7 µM (inactive), the GI50 (NCI-H460) was 29 µM (inactive) and the GI50 (HOP-62) was 55.2 µM (inactive).
